Source: patent publication US9328122B2, “7-substituted Hanfangichin B derivative, and preparation method and use thereof” (HANGZHOU BENSHENG PHARMACEUTICAL CO., LTD., priority 2012, dated 2016)
≈ marks a conversion by molar mass, not a printed value.

Assays:
tumor = experiment: Antitumor activity compared with fangchinoline, overall statement; type: cell-based; conditions: tumor type not specified
[1] = test system: CNE (nasopharyngeal carcinoma) cells; experiment: MTT cell growth inhibition, solid tumor cells; type: cell-based, human; conditions: for IC50 / IC90: Homo sapiens, CNE, 72 h, MTT; for IC50: read-out: IC50; for IC90: read-out: IC90
Procedure, shortened: (§1)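 Viable cell levels were read by MTT after a 72 h exposure to varying compound concentrations at 37 °C in 5% CO2; cells (6000 per well) had been pre-cultured 24 h in DMEM high glucose containing 10% fetal bovine serum.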

[2] = test system: PC-3 (prostate cancer) cells; experiment: MTT cell growth inhibition, solid tumor cells; type: cell-based, human; conditions: Homo sapiens, PC-3, 72 h, MTT; for IC50: read-out: IC50; for IC90: read-out: IC90
Procedure, shortened: as §1

[3] = test system: SK-OV-3 (ovarian cancer) cells; experiment: MTT cell growth inhibition, solid tumor cells; type: cell-based, human; conditions: Homo sapiens, SK-OV-3, 72 h, MTT; for IC50: read-out: IC50; for IC90: read-out: IC90
Procedure, shortened: as §1

[4] = test system: PANC-1 (pancreatic cancer) cells; experiment: MTT cell growth inhibition, solid tumor cells; type: cell-based, human; conditions: Homo sapiens, PANC-1, 72 h, MTT; for IC50: read-out: IC50; for IC90: read-out: IC90
Procedure, shortened: as §1

[5] = test system: H9 (acute lymphoblastic leukemia) cells; experiment: MTT cell growth inhibition, leukemia cells; type: cell-based, human; conditions: Homo sapiens, H9, 72 h, MTT; for IC50: read-out: IC50; for IC90: read-out: IC90
Procedure, shortened: (§2)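 Seed 6000 cells/well in RPMI-1640/10% FBS; next day add derivatives at varied concentrations and mix; incubate 72 h, 37° C., 5% CO2; measure viable cells by MTT.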

[6] = test system: Kasumi-1 (acute myeloid leukemia M2 type) cells; experiment: MTT cell growth inhibition, leukemia cells; type: cell-based, human; conditions: Homo sapiens, Kasumi-1, 72 h, MTT; for IC50: read-out: IC50; for IC90: read-out: IC90
Procedure, shortened: as §2

[7] = test system: Jurkat (acute lymphoblastic leukemia) cells; experiment: MTT cell growth inhibition, leukemia cells; type: cell-based, human; conditions: Homo sapiens, Jurkat, 72 h, MTT; for IC50: read-out: IC50; for IC90: read-out: IC90
Procedure, shortened: as §2

[8] = test system: RPMI 8226 (multiple myeloma) cells; experiment: MTT cell growth inhibition, multiple myeloma cells; type: cell-based, human; conditions: Homo sapiens, RPMI 8226, 72 h, MTT; for IC50: read-out: IC50; for IC90: read-out: IC90
Procedure, shortened: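 RPMI 8226 myeloma cells, 6000 per well in RPMI-1640 with 10% FBS, were dosed with fangchinoline derivatives at several concentrations the day after seeding. Incubation ran 72 h at 37° C in 5% CO2, then viable cells were measured by MTT.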

[9] = test system: Hela (human cervical cancer) cells; experiment: MTT cell growth inhibition, solid tumor cells; type: cell-based; conditions: Homo sapiens, Hela, 72 h, MTT; for IC50: read-out: IC50; for IC90: read-out: IC90
Procedure, shortened: as §1

[10] = test system: Becap-37 (human breast cancer) cells; experiment: MTT cell growth inhibition, solid tumor cells; type: cell-based; conditions: Homo sapiens, Becap-37, 72 h, MTT; for IC50: read-out: IC50; for IC90: read-out: IC90
Procedure, shortened: as §1

[11] = test system: Hep-2 (laryngeal carcinoma) cells; experiment: MTT cell growth inhibition, solid tumor cells; type: cell-based; conditions: Homo sapiens, Hep-2, 72 h, MTT; for IC50: read-out: IC50; for IC90: read-out: IC90
Procedure, shortened: as §1

[12] = test system: MGC-803 (human gastric cancer) cells; experiment: MTT cell growth inhibition, solid tumor cells; type: cell-based; conditions: MGC-803, 72 h, MTT; for IC50: read-out: IC50; for IC90: read-out: IC90
Procedure, shortened: as §1

[13] = test system: MG-63 (osteosarcoma) cells; experiment: MTT cell growth inhibition, solid tumor cells; type: cell-based; conditions: Homo sapiens, MG-63, 72 h, MTT; for IC50: read-out: IC50; for IC90: read-out: IC90
Procedure, shortened: as §1

[14] = test system: U87-MG (malignant glioma) cells; experiment: MTT cell growth inhibition, solid tumor cells; type: cell-based; conditions: Homo sapiens, U-87 MG, U87-MG, 72 h, MTT; for IC50: read-out: IC50; for IC90: read-out: IC90
Procedure, shortened: as §1

[15] = test system: A549 (human lung cancer) cells; experiment: MTT cell growth inhibition, solid tumor cells; type: cell-based; conditions: Homo sapiens, A549, 72 h, MTT; for IC50: read-out: IC50; for IC90: read-out: IC90
Procedure, shortened: as §1

[16] = test system: Hep G2 (human liver cancer) cells; experiment: MTT cell growth inhibition, solid tumor cells; type: cell-based; conditions: Homo sapiens, HepG2, Hep G2, 72 h, MTT; for IC50: read-out: IC50; for IC90: read-out: IC90
Procedure, shortened: as §1

[17] = test system: RKO (human colon adenocarcinoma) cells; experiment: MTT cell growth inhibition, solid tumor cells; type: cell-based; conditions: Homo sapiens, RKO, 72 h, MTT; for IC50: read-out: IC50; for IC90: read-out: IC90
Procedure, shortened: as §1

SMILES	antitumor activity compared with that of fangchinoline (tumor)	IC50 [1]	IC90 [1]	IC50 [2]	IC90 [2]	IC50 [3]	IC90 [3]	IC50 [4]	IC90 [4]	IC50 [5]	IC90 [5]	IC50 [6]	IC90 [6]	IC50 [7]	IC90 [7]	IC50 [8]	IC90 [8]	IC50 [9]	IC90 [9]	IC50 [10]	further results
COc1ccc2cc1Oc1ccc(cc1)C[C@H]1c3cc(c(OC)cc3CCN1C)Oc1c(OCC(O)CN3CCN(C#N)CC3)c(OC)cc3c1[C@H](C2)N(C)CC3 (stereo partly drawn) [BS-FC-421]	significantly superior	0.87 µg/mL (≈ 1.12 µM)	3.87 µg/mL (≈ 4.99 µM)	2.72 µg/mL (≈ 3.51 µM)	6.07 µg/mL (≈ 7.82 µM)	2.36 µg/mL (≈ 3.04 µM)	11 µg/mL (≈ 14.2 µM)	2.96 µg/mL (≈ 3.81 µM)	7.01 µg/mL (≈ 9.03 µM)	1 µg/mL (≈ 1.29 µM)	2.8 µg/mL (≈ 3.61 µM)	0.95 µg/mL (≈ 1.22 µM)	2.55 µg/mL (≈ 3.29 µM)	0.97 µg/mL (≈ 1.25 µM)	3.79 µg/mL (≈ 4.88 µM)	< 0.125 µg/mL	0.25 µg/mL (≈ 0.322 µM)	0.88 µg/mL (≈ 1.13 µM)	2.78 µg/mL (≈ 3.58 µM)	1.15 µg/mL (≈ 1.48 µM)	anti-CNE activity increase over fangchinoline ([1]; relative to fangchinoline, Table 2): ~3 fold; IC90 [10]: 3.96 µg/mL (≈ 5.1 µM); IC50 [11]: 1.92 µg/mL (≈ 2.47 µM); IC90 [11]: 8.95 µg/mL (≈ 11.5 µM); IC50 [12]: 0.84 µg/mL (≈ 1.08 µM); IC90 [12]: 4.44 µg/mL (≈ 5.72 µM); IC50 [13]: 1.6 µg/mL (≈ 2.06 µM); IC90 [13]: 2.4 µg/mL (≈ 3.09 µM); IC50 [14]: 1.05 µg/mL (≈ 1.35 µM); IC90 [14]: 2.75 µg/mL (≈ 3.54 µM); IC50 [15]: 3.78 µg/mL (≈ 4.87 µM); IC90 [15]: 10.2 µg/mL (≈ 13.1 µM); IC50 [16]: 1.16 µg/mL (≈ 1.49 µM); IC90 [16]: 3.25 µg/mL (≈ 4.19 µM); IC50 [17]: 0.61 µg/mL (≈ 0.786 µM); IC90 [17]: 2.33 µg/mL (≈ 3 µM)
C=C(C)COc1c(OC)cc2c3c1Oc1cc4c(cc1OC)CCN(C)[C@H]4Cc1ccc(cc1)Oc1cc(ccc1OC)C[C@@H]3N(C)CC2 [BS-FC-221]	significantly superior	1.8 µg/mL (≈ 2.72 µM)	3.8 µg/mL (≈ 5.73 µM)	3 µg/mL (≈ 4.53 µM)	5.46 µg/mL (≈ 8.24 µM)	2.38 µg/mL (≈ 3.59 µM)	3.94 µg/mL (≈ 5.94 µM)	1.42 µg/mL (≈ 2.14 µM)	4.65 µg/mL (≈ 7.02 µM)	1.96 µg/mL (≈ 2.96 µM)	4 µg/mL (≈ 6.03 µM)	1 µg/mL (≈ 1.51 µM)	3.39 µg/mL (≈ 5.11 µM)	0.52 µg/mL (≈ 0.785 µM)	1.89 µg/mL (≈ 2.85 µM)	0.11 µg/mL (≈ 0.166 µM)	0.46 µg/mL (≈ 0.694 µM)	0.71 µg/mL (≈ 1.07 µM)	1.9 µg/mL (≈ 2.87 µM)	1.91 µg/mL (≈ 2.88 µM)	IC90 [10]: 3.86 µg/mL (≈ 5.82 µM); IC50 [11]: 1.9 µg/mL (≈ 2.87 µM); IC90 [11]: 5.78 µg/mL (≈ 8.72 µM); IC50 [12]: 1.19 µg/mL (≈ 1.8 µM); IC90 [12]: 3.93 µg/mL (≈ 5.93 µM); IC50 [13]: 0.8 µg/mL (≈ 1.21 µM); IC90 [13]: 1.9 µg/mL (≈ 2.87 µM); IC50 [14]: 1.13 µg/mL (≈ 1.7 µM); IC90 [14]: 4.5 µg/mL (≈ 6.79 µM); IC50 [15]: 1.2 µg/mL (≈ 1.81 µM); IC90 [15]: 3.18 µg/mL (≈ 4.8 µM); IC50 [16]: 1.48 µg/mL (≈ 2.23 µM); IC90 [16]: 4.37 µg/mL (≈ 6.59 µM); IC50 [17]: 1.37 µg/mL (≈ 2.07 µM); IC90 [17]: 2.76 µg/mL (≈ 4.16 µM)
C=CCOc1c(OC)cc2c3c1Oc1cc4c(cc1OC)CCN(C)[C@H]4Cc1ccc(cc1)Oc1cc(ccc1OC)C[C@@H]3N(C)CC2 [BS-FC-213]	significantly superior	2.7 µg/mL (≈ 4.16 µM)	5.6 µg/mL (≈ 8.63 µM)	3.24 µg/mL (≈ 4.99 µM)	7.37 µg/mL (≈ 11.4 µM)	5 µg/mL (≈ 7.71 µM)	11.8 µg/mL (≈ 18.2 µM)	3.46 µg/mL (≈ 5.33 µM)	10.4 µg/mL (≈ 16 µM)	2.2 µg/mL (≈ 3.39 µM)	4 µg/mL (≈ 6.17 µM)	0.93 µg/mL (≈ 1.43 µM)	3.66 µg/mL (≈ 5.64 µM)	0.64 µg/mL (≈ 0.986 µM)	3.29 µg/mL (≈ 5.07 µM)	0.12 µg/mL (≈ 0.185 µM)	0.5 µg/mL (≈ 0.771 µM)	1.68 µg/mL (≈ 2.59 µM)	3.89 µg/mL (≈ 6 µM)	2.54 µg/mL (≈ 3.91 µM)	IC90 [10]: 5.29 µg/mL (≈ 8.15 µM); IC50 [11]: 3.63 µg/mL (≈ 5.59 µM); IC90 [11]: 9.9 µg/mL (≈ 15.3 µM); IC50 [12]: 1.49 µg/mL (≈ 2.3 µM); IC90 [12]: 6.02 µg/mL (≈ 9.28 µM); IC50 [13]: 2.4 µg/mL (≈ 3.7 µM); IC90 [13]: 3.8 µg/mL (≈ 5.86 µM); IC50 [14]: 1.85 µg/mL (≈ 2.85 µM); IC90 [14]: 9.23 µg/mL (≈ 14.2 µM); IC50 [15]: 2.19 µg/mL (≈ 3.38 µM); IC90 [15]: 4.92 µg/mL (≈ 7.58 µM); IC50 [16]: 2.12 µg/mL (≈ 3.27 µM); IC90 [16]: 5.92 µg/mL (≈ 9.12 µM); IC50 [17]: 1.58 µg/mL (≈ 2.44 µM); IC90 [17]: 3.46 µg/mL (≈ 5.33 µM)
COc1ccc2cc1Oc1ccc(cc1)C[C@H]1c3cc(c(OC)cc3CCN1C)Oc1c(OC3CCCC3)c(OC)cc3c1[C@H](C2)N(C)CC3 [BS-FC-220]	significantly superior	3.2 µg/mL (≈ 4.73 µM)	7.6 µg/mL (≈ 11.2 µM)	4.55 µg/mL (≈ 6.72 µM)	7.61 µg/mL (≈ 11.2 µM)	5.41 µg/mL (≈ 7.99 µM)	14.2 µg/mL (≈ 21.1 µM)	2.79 µg/mL (≈ 4.12 µM)	7.68 µg/mL (≈ 11.3 µM)	3.23 µg/mL (≈ 4.77 µM)	6.64 µg/mL (≈ 9.81 µM)	1.15 µg/mL (≈ 1.7 µM)	3.72 µg/mL (≈ 5.5 µM)	0.93 µg/mL (≈ 1.37 µM)	3.09 µg/mL (≈ 4.57 µM)	0.12 µg/mL (≈ 0.177 µM)	0.5 µg/mL (≈ 0.739 µM)	1.43 µg/mL (≈ 2.11 µM)	3.71 µg/mL (≈ 5.48 µM)	3.19 µg/mL (≈ 4.71 µM)	IC90 [10]: 6.1 µg/mL (≈ 9.01 µM); IC50 [11]: 4.2 µg/mL (≈ 6.21 µM); IC90 [11]: 10.3 µg/mL (≈ 15.2 µM); IC50 [12]: 1.4 µg/mL (≈ 2.07 µM); IC90 [12]: 3.96 µg/mL (≈ 5.85 µM); IC50 [13]: 2.8 µg/mL (≈ 4.14 µM); IC90 [13]: 3.6 µg/mL (≈ 5.32 µM); IC50 [14]: 2.28 µg/mL (≈ 3.37 µM); IC90 [14]: 7.03 µg/mL (≈ 10.4 µM); IC50 [15]: 2.55 µg/mL (≈ 3.77 µM); IC90 [15]: 4.97 µg/mL (≈ 7.34 µM); IC50 [16]: 2.37 µg/mL (≈ 3.5 µM); IC90 [16]: 7.01 µg/mL (≈ 10.4 µM); IC50 [17]: 1.25 µg/mL (≈ 1.85 µM); IC90 [17]: 3.73 µg/mL (≈ 5.51 µM)
